{
  "source": "patent US10987317B2",
  "about": "“Inhibition of glutaminase C” (Cornell University, priority 2009, dated 2021)",
  "assay_type_in_all_cases": "cell-based",
  "key": {"[1]": {"biological_target": "T1, V5-tagged GAC in NIH 3T3 cells stably expressing Dbl (Mus musculus, UniProt D3Z7P3)", "T1 construct": "expressed in transfected cells; host or cells: NIH 3T3 cells stably expressing oncogenic Dbl", "T1 sequence (D3Z7P3 55-603 isoform D3Z7P3-2 limits assumed)": "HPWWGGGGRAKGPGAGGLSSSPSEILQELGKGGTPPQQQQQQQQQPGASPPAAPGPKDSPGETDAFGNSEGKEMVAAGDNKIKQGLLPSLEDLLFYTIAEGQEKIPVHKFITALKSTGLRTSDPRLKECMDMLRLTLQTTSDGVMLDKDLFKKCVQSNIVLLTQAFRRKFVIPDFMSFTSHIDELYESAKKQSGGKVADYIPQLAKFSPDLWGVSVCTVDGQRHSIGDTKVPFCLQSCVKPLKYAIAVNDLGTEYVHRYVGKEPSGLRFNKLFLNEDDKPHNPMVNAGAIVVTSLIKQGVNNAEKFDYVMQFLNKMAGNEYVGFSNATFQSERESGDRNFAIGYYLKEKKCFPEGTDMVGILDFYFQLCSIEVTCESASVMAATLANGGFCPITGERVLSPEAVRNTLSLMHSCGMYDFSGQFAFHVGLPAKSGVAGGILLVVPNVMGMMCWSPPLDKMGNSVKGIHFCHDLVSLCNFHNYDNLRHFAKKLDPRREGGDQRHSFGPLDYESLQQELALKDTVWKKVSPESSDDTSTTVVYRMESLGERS", "assay": "GAC phosphorylation by 2-D gel and Western blotting", "settings": "10 μM for 48 hours", "experimental": "NIH 3T3 cells stably expressing the Dbl oncogene, were transiently transfected with DNA encoding a VS-tagged GAC, and then one sample was treated with 968 (10 μM) for 48 hours. The cells were then harvested and the ectopically expressed GAC was isolated by immunoprecipitation via the V5 tag. The samples were then subjected to 2-D gel analysis to separate the V5-GAC by charge and size, and the V5-tagged GAC was visualized by Western blotting using an anti-V5 antibody. […] Since 968 inhibits the enzymatic activity of GAC, and the phosphorylation appears to be required for its basal enzyme activity, it appears that 968 might be functioning to inhibit glutaminase C by inhibiting the ability of at least one site on glutaminase C to become phosphorylated."}, "[2]": {"system": "NIH 3T3 cells transfected with oncogenic Dbl", "assay": "Dbl-induced cellular transformation (focus-forming assays, growth in low serum, soft agar)", "experimental": "FIGS. 1A-E illustrate that the small molecule 968 inhibiting cellular transformation. […] Cells were fixed and stained with crystal violet for counting of foci. Right: 968 was serially diluted (10, 5, 2.5, and 1.25 μM) and evaluated for its ability to inhibit focus formation. […] After 6 days, the cells are counted. 100% represents the number of Dbl-transformed cells counted in the absence of 968 (27.5×10^4 cells). Data represent the average of 3 experiments (±s.d.). […] At the indicated times, the cells are counted. Data represent the average of 3 experiments (±s.d.).\nFIGS. 2A-G illustrate effects of 968 on the transforming activity of constitutively active Rho GTPases and human breast cancer cells. […] Cells are scored after 14 days and plotted as the percentage of the total number of colonies greater than […] in diameter. Data represent the average of 3 experiments (±s.d.). […] Data represent the average of 3 experiments (±s.d.). […] Data represent the average of 3 experiments (±s.d.). […] After 24 hours at 37° C. the migratory cells are fixed, stained with GIEMSA, and counted. Data represent the average of 3 experiments (±s.d.). […] Data represent the average of 3 experiments (±s.d.). […] Data represent the average of 3 experiments (±s.d.). […] Data represent the average of 3 experiments (±s.d.).\nFIGS. 5A-C illustrate comparative abilities of 968 and other benzo[a]phenanthrldinones to inhibit the transforming activity of oncogenic Dbl and H-Ras. […] Histograms show the relative levels of Dbl-induced focus formation for the different treatments, compared to Dbl-induced focus formation measured in the presence of DMSO (i.e. solvent control). Data represent the average of 3 experiments (mean±s.d.). […] Histograms show the relative levels of Ras(G12V)-induced focus formation measured for the different treatments, compared to Ras(G12V)-induced focus formation measured in the presence of DMSO (solvent control). Data represent the average of 3 experiments (mean±s.d.). FIG. 5C NIH 3T3 cells stably expressing H-Ras(G12V) that are cultured in DMEM supplemented with 1% calf serum, with the indicated amounts of 968. After 6 days, cells are trypsinized and counted. 100% represents the number of cells counted in the absence of 968, i.e. 26×10^4 cells. Data represent the average of 3 experiments (mean±s.d.)."}, "[3]": {"system": "NIH 3T3 cells stably expressing Cdc42(F28L) and transiently expressing GAC", "assay": "Focus formation by Cdc42(F28L) plus GAC", "source_text": "FIGS. 4A-E illustrate the role of glutaminase C activity in cellular transformation. […] Data represent the average of 3 experiments (±s.d.). […] Data represent the average of 3 experiments (±s.d.). […] 100% represents the activity measured in untreated Dbl-transformed cells. The data represent the average of 2 experiments. […] 100% represents the activity measured in untreated SKBR3 cells. The data represent the average of 2 experiments. […] Data represent the average of 3 experiments (±s.d.)."}},
  "data": [
    {"compound": "CN(C)c1ccc(C2Nc3ccc4ccccc4c3C3=C2C(=O)CC(C)(C)C3)cc1Br", "note": "(centres unmarked) [Compound 968, 5-[3-bromo-4-(dimethylamino)phenyl]-2,2-dimethyl-2,3,5,6-tetrahydrobenzo[a]]", "values": [
      {"measurement": "phosphorylation state of GAC", "setting": "[1]", "value": "significant reduction of at least one phosphorylation state"},
      {"measurement": "Dbl-induced colony formation in soft agar", "setting": "[2]; 10 μM", "value": "blocked"},
      {"measurement": "reversal of 968-inhibition by cell-permeable analog of α-ketoglutarate", "setting": "[2]; focus-formation, 10 μM 968 with 7 μM dimethyl α-ketoglutarate", "value": "circumvented"},
      {"measurement": "concentration at which active in blocking Dbl-induced transformation", "setting": "[2]; focus-forming assays or growth in low serum", "value": "1 to 10", "unit": "µM"},
      {"measurement": "focus-forming activity", "setting": "[3]", "value": "blocked"}
    ]}
  ]
}
